Numbers after ± are expanded uncertainties.
Experiments:
[1] = 101 kPa, Liquid, Vibrating tube method
[2] = wn = mass fraction of the nth substance listed; conditions: 101 kPa, Liquid, Vibrating tube method

CC(O)CN(C)C (stereo not drawn) [1-(dimethylamino)-2-propanol]
mass density ([1]; 298.15 K): 845.2 ± 6 kg/m3
mass density ([1]; 303.15 K): 840.4 ± 6 kg/m3
mass density ([1]; 308.15 K): 835.6 ± 6 kg/m3
mass density ([1]; 313.15 K): 830.7 ± 6 kg/m3
mass density ([1]; 318.15 K): 825.9 ± 6 kg/m3
mass density ([1]; 323.15 K): 820.9 ± 6 kg/m3

CC(O)CN(C)C (stereo not drawn) [1-(dimethylamino)-2-propanol] + O
mass density ([2]; 298.15 K, w1 = 0.1): 992.5 ± 7.2 kg/m3
mass density ([2]; 298.15 K, w1 = 0.2): 989.5 ± 6.9 kg/m3
mass density ([2]; 298.15 K, w1 = 0.3): 984.6 ± 6.7 kg/m3
mass density ([2]; 298.15 K, w1 = 0.4): 976.7 ± 6.6 kg/m3
mass density ([2]; 298.15 K, w1 = 0.5): 967.2 ± 6.6 kg/m3
mass density ([2]; 298.15 K, w1 = 0.55): 958.7 ± 7 kg/m3
mass density ([2]; 298.15 K, w1 = 0.6): 948.9 ± 7.1 kg/m3
mass density ([2]; 298.15 K, w1 = 0.71): 929.1 ± 7.3 kg/m3
mass density ([2]; 298.15 K, w1 = 0.81): 905.6 ± 7.9 kg/m3
mass density ([2]; 298.15 K, w1 = 0.91): 876.5 ± 8.5 kg/m3
mass density ([2]; 298.15 K, w1 = 0.96): 860.5 ± 9.1 kg/m3
mass density ([2]; 298.15 K, w1 = 1): 845.2 ± 6 kg/m3
mass density ([2]; 303.15 K, w1 = 0.1): 990.8 ± 7.2 kg/m3
mass density ([2]; 303.15 K, w1 = 0.2): 987.2 ± 6.9 kg/m3
mass density ([2]; 303.15 K, w1 = 0.3): 981.4 ± 6.7 kg/m3
mass density ([2]; 303.15 K, w1 = 0.4): 972.8 ± 6.6 kg/m3
mass density ([2]; 303.15 K, w1 = 0.5): 962.9 ± 6.6 kg/m3
mass density ([2]; 303.15 K, w1 = 0.55): 954.2 ± 7.2 kg/m3
mass density ([2]; 303.15 K, w1 = 0.6): 944.2 ± 7.1 kg/m3
mass density ([2]; 303.15 K, w1 = 0.71): 924.3 ± 7.3 kg/m3
mass density ([2]; 303.15 K, w1 = 0.81): 900.9 ± 8 kg/m3
mass density ([2]; 303.15 K, w1 = 0.91): 871.1 ± 8.5 kg/m3
mass density ([2]; 303.15 K, w1 = 0.96): 855.7 ± 9 kg/m3
mass density ([2]; 303.15 K, w1 = 1): 840.4 ± 6 kg/m3
mass density ([2]; 308.15 K, w1 = 0.1): 988.9 ± 7.3 kg/m3
mass density ([2]; 308.15 K, w1 = 0.2): 984.6 ± 6.9 kg/m3
mass density ([2]; 308.15 K, w1 = 0.3): 978 ± 6.7 kg/m3
mass density ([2]; 308.15 K, w1 = 0.4): 968.7 ± 6.6 kg/m3
mass density ([2]; 308.15 K, w1 = 0.5): 958.5 ± 6.6 kg/m3
mass density ([2]; 308.15 K, w1 = 0.55): 949.7 ± 7.2 kg/m3
mass density ([2]; 308.15 K, w1 = 0.6): 939.6 ± 7.1 kg/m3
mass density ([2]; 308.15 K, w1 = 0.71): 919.5 ± 7.3 kg/m3
mass density ([2]; 308.15 K, w1 = 0.81): 896 ± 8 kg/m3
mass density ([2]; 308.15 K, w1 = 0.91): 866.9 ± 8.5 kg/m3
mass density ([2]; 308.15 K, w1 = 0.96): 850.8 ± 9.1 kg/m3
mass density ([2]; 308.15 K, w1 = 1): 835.6 ± 6 kg/m3
mass density ([2]; 313.15 K, w1 = 0.1): 986.7 ± 7.3 kg/m3
mass density ([2]; 313.15 K, w1 = 0.2): 981.9 ± 6.9 kg/m3
mass density ([2]; 313.15 K, w1 = 0.3): 974.5 ± 6.8 kg/m3
mass density ([2]; 313.15 K, w1 = 0.4): 964.6 ± 6.6 kg/m3
mass density ([2]; 313.15 K, w1 = 0.5): 954.1 ± 6.7 kg/m3
mass density ([2]; 313.15 K, w1 = 0.55): 945 ± 7.2 kg/m3
mass density ([2]; 313.15 K, w1 = 0.6): 934.8 ± 7.1 kg/m3
mass density ([2]; 313.15 K, w1 = 0.71): 914.7 ± 7.3 kg/m3
mass density ([2]; 313.15 K, w1 = 0.81): 891.1 ± 8 kg/m3
mass density ([2]; 313.15 K, w1 = 0.91): 862 ± 8.4 kg/m3
mass density ([2]; 313.15 K, w1 = 0.96): 846 ± 9.1 kg/m3
mass density ([2]; 313.15 K, w1 = 1): 830.7 ± 6 kg/m3
mass density ([2]; 318.15 K, w1 = 0.1): 984.2 ± 7.3 kg/m3
mass density ([2]; 318.15 K, w1 = 0.2): 979 ± 6.9 kg/m3
mass density ([2]; 318.15 K, w1 = 0.3): 970.9 ± 6.8 kg/m3
mass density ([2]; 318.15 K, w1 = 0.4): 960.5 ± 6.7 kg/m3
mass density ([2]; 318.15 K, w1 = 0.5): 949.4 ± 6.7 kg/m3
mass density ([2]; 318.15 K, w1 = 0.55): 940.4 ± 7.2 kg/m3
mass density ([2]; 318.15 K, w1 = 0.6): 930 ± 7.2 kg/m3
mass density ([2]; 318.15 K, w1 = 0.71): 909.8 ± 7.3 kg/m3
mass density ([2]; 318.15 K, w1 = 0.81): 886.2 ± 8 kg/m3
mass density ([2]; 318.15 K, w1 = 0.91): 857.1 ± 8.4 kg/m3
mass density ([2]; 318.15 K, w1 = 0.96): 841 ± 9.1 kg/m3
mass density ([2]; 318.15 K, w1 = 1): 825.9 ± 6 kg/m3
mass density ([2]; 323.15 K, w1 = 0.1): 982.1 ± 7.3 kg/m3
mass density ([2]; 323.15 K, w1 = 0.2): 976 ± 7.2 kg/m3
mass density ([2]; 323.15 K, w1 = 0.3): 967.2 ± 6.8 kg/m3
mass density ([2]; 323.15 K, w1 = 0.4): 956.3 ± 6.6 kg/m3
mass density ([2]; 323.15 K, w1 = 0.5): 944.8 ± 6.7 kg/m3
mass density ([2]; 323.15 K, w1 = 0.55): 935.6 ± 7.3 kg/m3
mass density ([2]; 323.15 K, w1 = 0.6): 925.2 ± 7.2 kg/m3
mass density ([2]; 323.15 K, w1 = 0.71): 904.9 ± 7.3 kg/m3
mass density ([2]; 323.15 K, w1 = 0.81): 881.2 ± 8 kg/m3
mass density ([2]; 323.15 K, w1 = 0.91): 852.1 ± 8.5 kg/m3
mass density ([2]; 323.15 K, w1 = 0.96): 836.1 ± 9.1 kg/m3
mass density ([2]; 323.15 K, w1 = 1): 820.9 ± 6 kg/m3

Source: the NIST ThermoML archive (doi:10.1021/je501126j)
